Data from PubChem BioAssay (NCI).
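Test compounds were applied to cells in 96-well plates for 48 hours at 5 doses. TGI is the concentration that stops growth completely.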

What was measured:
Test in all cases: inhibition of tumour cell growth, NCI panel, 48 h
SW-620 colon = system: SW-620 colon
DU-145 prostate = system: DU-145 prostate
MOLT-4 leukemia = system: MOLT-4 leukemia
HT29 colon = system: HT29 colon
OVCAR-3 ovarian = system: OVCAR-3 ovarian
SK-MEL-28 melanoma = system: SK-MEL-28 melanoma
HCC-2998 colon = system: HCC-2998 colon
MALME-3M melanoma = system: MALME-3M melanoma
CAKI-1 renal = system: CAKI-1 renal
K-562 leukemia = system: K-562 leukemia

SMILES	TGI (SW-620 colon) [µM]	TGI (DU-145 prostate) [µM]	TGI (MOLT-4 leukemia) [µM]	TGI (HT29 colon) [µM]	TGI (OVCAR-3 ovarian) [µM]	TGI (SK-MEL-28 melanoma) [µM]	TGI (HCC-2998 colon) [µM]	TGI (MALME-3M melanoma) [µM]	TGI (CAKI-1 renal) [µM]	TGI (K-562 leukemia) [µM]
O=C1CSC(c2cccs2)N1c1nc2cc3sc(N4C(=O)CSC4c4cccs4)nc3cc2s1 (configuration not stated)	> 50	> 50	> 50	> 50	> 50	> 50	> 50	> 50	> 50	> 50
NC1CNC(=O)c2c(Cl)sc(Cl)c21 (configuration not stated)	> 100	> 100	> 100	> 100	> 100	> 100	> 100	> 100	> 100	> 100
CCOC(=O)C(NC(=O)CC(C)C)(N1CCN(c2cc3c(cc2F)c(=O)c(C(=O)O)cn3C2CC2)CC1)C(F)(F)F (configuration not stated)	74.1	> 100	40.2	91.6	66.7	55.5	28.4	31.7	74.5	42
Brc1ccc2c(-c3csc(-c4c[nH]c5ccc(Br)cc45)n3)c[nH]c2c1	28.3	15.5	> 22.4	3.35	23.2	25.8	5.51	19.3	9.81	> 22.2
O=C(CSc1n[nH]c(=O)[nH]c1=O)NNC(=O)c1cccc2nc3ccccc3nc12	> 100	> 100	> 100	> 100	> 100	> 100	> 100	87.8	> 100	> 100
COc1cc(I)c2c3c1OC1C34CCN(C)C(C2)C4=CC(I)C1(OC)OC (configuration not stated)	52.2	47.5	42.4	83.6	59	47.5	28.9	47.1	93.8	61.8
c1ccc2c3c(c(N4CCOCC4)nc2c1)CCCC3	> 100	> 100	> 100	> 100	> 100	> 100	> 100	> 100	> 100	> 100
COc1ccc2c(c1)CC1=C(O2)c2ccc(OC)cc2OC1	34.6	> 100	> 100	72.9	36.4	–	> 100	45.5	37.1	> 100
COc1cc(/C=C\C(=O)O)ccc1OCc1ccccc1	> 100	> 100	> 100	–	> 100	> 100	> 100	> 100	> 100	> 100
Brc1cc2nn(-c3ccccc3)nc2c2nonc12	> 100	> 100	> 100	> 100	> 100	> 100	> 100	> 100	> 100	> 100
COc1ccc(Nc2nc3c([nH]2)c(=O)n(C)c(=O)n3C)cc1	> 10	> 10	> 10	> 10	–	> 10	> 10	> 10	> 10	> 10
NC(N)=NS(=O)(=O)c1ccc(NC(=O)c2ccc3nc4ccccc4c(Nc4ccc(S(=O)(=O)N=C(N)N)cc4)c3c2)cc1	> 100	> 100	> 100	> 100	> 100	> 100	> 100	> 100	> 100	> 100
COc1cc(CN2CCCCC2)cc2cc(C(=O)O)c(=O)oc12	> 100	> 100	> 100	> 100	> 100	> 100	> 100	> 100	> 100	> 100
O=C1C=C(c2ccccc2)O/C1=C/C(=O)c1ccc(Cl)cc1	27.1	> 100	> 100	36.5	31.9	32.9	32.2	36	27.6	33.7
O=c1c2ccccc2nc(Nc2cccc(Cl)c2)n1/N=C/C=C/c1ccccc1	> 100	> 100	> 100	> 100	> 100	> 100	> 100	> 100	> 100	> 100
CC1(C)C=C(S(=O)(=O)c2ccccc2)Oc2ccccc2O1	> 100	> 100	71.9	> 100	> 100	> 100	68.5	75.2	> 100	> 100
Nc1ccc(S(=O)(=O)Nc2nc3ccccc3nc2N2CCCCC2)cc1	> 100	> 100	> 100	> 100	> 100	> 100	> 100	> 100	> 100	> 100
